Reference: patent EP2767543B1, “SALTS OF CARBAMOYL PHOSPHONIC ACID ESTERS WHICH ACT AS SELECTIVE INHIBITORS OF HUMAN IMMUNODEFICIENCY VIRUS HIV-1 PRODUCTION” (Aktsionernoe Obshcestvo "Proizvodstvenno-Kommercheskaya …, priority 2011, dated 2013)

Experiments:
[1] = Stability analysis of 1% water solutions at room temperature; type: physicochemical; conditions: within a month
Description: The stability analysis for the obtained compounds in the form of 1% water solutions at room temperature was carried out. The acid form of the carbamoyl phosphonate and ammonia salt degrade by 40% and 2%, respectively, within a month; no destruction products were detected for the rest of salts within a month.

[2] = system: MT-4 cells; assay: Cytotoxicity assessment in MT-4 cells (MTT / formazan method, 4 days); type: cell-based; conditions: concentration that reduces MT-4 cell vitality by 50%, day 4, MTT
Description: Cytotoxicity of a drug is estimated by adding its delution in RPMI-1640 serum-free medium to MT-4 cell suspension placed in cavities of the 96-cavity board (Cel-Cult, England), up to the ultimate concentrations of 0.001-100 µg/ml (three cavities per dose), with subsequent cultivation at 37°C within 4 days. The inoculation concentration is 0.5x10^6 cell particles in 1 mm. The cells, to which the drug was not added and was substituted with the same quantity of the serum-free medium, serve as the reference. The cell vitality is counted on Day 4 of cultivation, using the formazan method (intravital staining of MTT cells). Toxicity of different drug doses is determined by the cell vitality as compared with the reference cells; the dose-dependent curve is built using obtained data, and the concentration that reduces cell vitality by 50% (CD50) is determined. […] It is also noteworthy that 50% toxic doses exceed HIV-1 effective doses by a factor of 2-4 (see Table 1) .

[3] = system: HIV-1, GVK4046; assay: HIV-1 reproduction inhibition in MT-4 cell culture (p24 ELISA and MTT cell vitality, day 4); type: cell-based; conditions: HIV-1, GVK4046 in MT-4 cell culture, 4 days; read-out: ID50 (the source's name)
Description: The HIV inhibition study includes cultivation of primary infective MT-4 line lymphoid cells over the studied compounds, the ultimate concentrations of which in the culture medium range from 0.001 µg/ml to 100 µg/ml, during one passage, within 4 days.
HIV reproduction inhibition in the sensitive cell culture is determined by the reduction in p24 virus-specific protein accumulation (according to the enzyme-linked immunosorbent assay) and by the increase in cell vitality over the drug as compared with the reference cells, on Day 4 of the cultivation, using 3-(4.5-dimethylthiazole-2-yl-)-2,5-diphenyl tetrazolium (MTT) bromide staining.
The impact of the studied compounds on HIV-1 reproduction in MT-4 cell culture is studied using a well-known technique.

Structure (SMILES): Cc1cn([C@H]2C[C@H](N=[N+]=[N-])[C@@H](COP(=O)(O)C(N)=O)O2)c(=O)[nH]c1=O [Acid form (reference), [(2S,3S,5R)-3-azido-5-(5-methyl-2,4-deoxythymidine-1-yl)oxolan-2-yl]methyl ester of carbamoyl phosphonic acid, reference compound]
- degrade [1]: 40%
- CD50 [2]: 2.6 µM
- IC50 [3]: 800 nM
